From a melting point compilation (Tetko et al.; mined from patent text by program, amines drawn as free bases though some values may be those of a salt) come the findings set out here.

Bounds are passed on as bounds.

One may read the melting point as the temperature, or range, at which the solid turns liquid. In the case of `CC(=O)c1cc(NS(C)(=O)=O)ccc1F`, the melting point lay in the range of 120 to 123 °C.

Regarding `CCOC(=O)CN(C)S(=O)(=O)c1ccsc1C(=O)OC`, the melting point was 84 to 85 °C.

Molecule `COc1ccc2oc3ccccc3c(=O)c2c1` came in with a melting point of 128 to 130 °C.

Molecule `OCc1cccc(-c2ccc3nc(-c4ccc(Cl)cc4)cn3c2)c1` showed a melting point of 181 to 182 °C.

In turn, `CCOC(=O)c1[nH]c2ccc(Cl)cc2c1-c1ccccc1` showed a melting point of 171 to 172 °C.

Take `CCCCCCCCCCCCCCCCCCN(CCCCCCCCCCCCCCCCCC)CCCN(CC(=O)OC)CC(=O)OC`: the melting point is 75 to 77 °C.

As for `COc1ccc(C2=NN(Cc3ccccn3)C(=O)[C@H]3CC=CC[C@@H]23)cc1OC` (relative stereo), the melting point lay in the range of 146 to 147 °C.

In turn, `Cc1cc(C(=O)NCCc2ccccc2)n(C)n1` registered a melting point of 90.5 to 91.5 °C.

The molecule `CC(=O)N1CCC(C(=O)Nc2ccccc2Oc2ccc(Cl)cc2)CC1` yielded a melting point of 195 to 196 °C.

As for `CC(=O)Nc1c(Cl)cc(CC(=O)O)cc1Cl`, the melting point was in the range of 209 to 211 °C.

On to `Fc1cccc(Cl)c1CSc1nc2cnccc2[nH]1`, for which the melting point fell in the range of 224 to 226 °C.

Consider `O=c1[nH]c2cc(Cl)cc(Cl)c2c(O)c1Sc1ccccc1Br`, for which the melting point fell in the range of 285 to 288 °C.

For the molecule `COCOc1ccc(CO[Si](C)(C)C(C)(C)C)c2cccc(C)c12`, the melting point is 42 to 43 °C.

In turn, `Cc1cc2c(c3c1NC(=O)CC3)OC(CN=[N+]=[N-])C2` (configuration not stated) yielded a melting point of 146 to 149 °C.

Regarding `COc1cc(CCNC(=O)C(F)(F)F)ccc1[N+](=O)[O-]`, the melting point amounted to 104 °C.

On to `O=C(Nc1cc(C(F)(F)F)nc(C(F)(F)F)c1)C(=O)Nc1cc(C(F)(F)F)nc(C(F)(F)F)c1`, for which the melting point is 271 to 272 °C.

Turning to `Sc1nccn1-c1nccs1`, the melting point lay within 211 to 213 °C.

`COC(=O)C1=C(C)NC(C)=C(C(=O)n2ccnc2)C1c1cccc2nonc12` (configuration not stated) registered a melting point of 195 °C.

For the molecule `COC(=O)c1ccccc1COc1cccc2oc(C)cc12`, the melting point lay in the range of 93 to 95 °C.

For the molecule `Cc1cc(NCCO)c2nn(-c3ccccc3)c(C)c2n1`, the melting point is 159 to 161 °C.

In the case of `CC(CC#N)Nc1cc(Oc2ccc(S(=O)(=O)C(C)C)cc2Cl)ccc1[N+](=O)[O-]` (configuration not stated), the melting point turned out to be 132 °C.

Consider `CS(=O)(=O)Nc1ccc(NC(=O)C(=O)N2CCC(Cc3ccccc3)CC2)cc1`, for which the melting point fell in the range of 221 to 225 °C.

`O=c1cc(O)c2c([nH]1)CCCC2` returned a melting point greater than 300 °C.

With `CC(C)(C)[Si](C)(C)Oc1ccc(NC(=O)CN2CCC(O)(Cc3ccc(Cl)cc3)CC2)cc1`, the melting point fell in the range of 135 to 136 °C.

`COC(=O)c1nc(Cl)c(F)c(N)c1I` came in with a melting point of 149 to 151 °C.

For `C[C@@H](NC(=O)C1CCC1)c1cccc(C(=O)c2ccccc2)c1`, the melting point lay within 90 to 93 °C.

`COc1cccc(C2=C(CC(C)N3CCCC3)C(=O)NCCC2)c1` (configuration not stated) returned a melting point of 94 to 96 °C.

In turn, `CS(=O)(=S)OCCCCCCCCCCOS(C)(=O)=S` (configuration not stated) displayed a melting point of 45 to 52 °C.

On to `CCN(CC)SNc1ccc(Oc2ccc(C(F)(F)F)cc2Cl)cc1F`, for which the melting point was 58 to 60 °C.

`CCCCCC(O)CCCN(CCCCCCC(=O)O)C(N)=O` (configuration not stated): the melting point was in the range of 75 to 76 °C.

In turn, `CC(C)(C)C(=O)C(Br)C(c1ccc(Cl)cc1Cl)S(=O)(=O)c1ccc(Cl)cc1` (configuration not stated) returned a melting point of 184 to 185 °C.

In turn, `COc1cccc2sc3cc(=O)ccc-3nc12` came in with a melting point of 206 to 207 °C.

Take `Cc1cc(S(=O)(=O)O)c(NC(=O)Nc2cccc(Br)c2)cc1Cl`: the melting point amounted to 275 °C.

Molecule `CCC1(CC)NC(C)(C)CN(c2ccccc2)C1=O` yielded a melting point of 54 to 56 °C.

Take `Cc1cccc(NC(=O)NCC(=O)N(CC(=O)OC2(C)CCCC2)c2ccccc2)c1`: the melting point is 160 °C.

As for `COc1nc(N)nc2nc(/C=C3/CC3(CO)CO)[nH]c12`, the melting point was 188 to 189 °C.

The molecule `CCC(CC)Nc1cc(C)nc(Oc2c(C)cc(Cl)cc2C)c1NC(C)=O` gave a melting point of 161 to 164 °C.
